Source: patent US20260262643A1, “HERBICIDAL BENZOXAZINES” (FMC CORPORATION, priority 2022, published 2026)

Experiments:
blackgrass [1] = assay: Test C preemergence; type: in vivo, Alopecurus myosuroides; conditions: for Plant response rating, Blackgrass: Preemergence; for Blackgrass plant response rating: preemergence
Method in brief: (§1)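 Seeds in loam–sand blend received preemergence directed soil spray of test chemicals in non-phytotoxic solvent with surfactant; postemergence treatment was applied at one- to two-leaf stage (2–10 cm). After 10 days in greenhouse, injury rated visually versus untreated controls, 0 (no effect) to 100 (complete control).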

ragweed [2] = assay: Test C preemergence; type: in vivo, Ambrosia artemisiifolia; conditions: for Plant response rating, Ragweed: Preemergence; for Ragweed plant response rating: preemergence
Method in brief: as §1

oat, wild [3] = assay: Test C postemergence; type: in vivo, Avena fatua; conditions: 10 days
Method in brief: as §1

rice = assay: Test D flooded paddy test; type: in vivo, Oryza sativa; conditions: 250 g ai/ha, applied to paddy water, visual rating after 13 to 14 days, scale 0 to 100 (0 no effect, 100 complete control)
Method in brief: (§2)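 Rating scale 0–100 (0 no effect, 100 complete control), visual, versus controls. Readout at 13–14 days after in-water application to 2-leaf plants in pots flooded 3 cm deep.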

green foxtail [4] = assay: Test C postemergence; type: in vivo, Setaria viridis; conditions: 10 days
Method in brief: as §1

soybean [5] = assay: Test C postemergence; type: in vivo, Glycine max; conditions: 10 days
Method in brief: as §1

oat, wild [6] = assay: Test C preemergence; type: in vivo, Avena fatua; conditions: for Plant response rating, Oat, Wild: Preemergence; for Oat, Wild plant response rating: preemergence
Method in brief: as §1

ryegrass, Italian [7] = assay: Test C preemergence; type: in vivo, Lolium multiflorum; conditions: 0 to 100 scale (0 no effect, 100 complete control); for Ryegrass, Italian plant response rating: preemergence
Method in brief: as §1

corn [8] = assay: Test C preemergence; type: in vivo, Zea mays; conditions: for Plant response rating, Corn: Preemergence; for Corn plant response rating: preemergence
Method in brief: as §1

ducksalad = assay: Test D flooded paddy test; type: in vivo, Heteranthera limosa; conditions: 250 g ai/ha, applied to paddy water, visual rating after 13 to 14 days, scale 0 to 100 (0 no effect, 100 complete control)
Method in brief: as §2

galium = assay: Test C postemergence; type: in vivo, Galium aparine; conditions: 10 days
Method in brief: as §1

kochia [9] = assay: Test C postemergence; type: in vivo, Bassia scoparia; conditions: 10 days
Method in brief: as §1

sedge, umbrella = assay: Test D flooded paddy test; type: in vivo, Cyperus difformis; conditions: 250 g ai/ha, applied to paddy water, visual rating after 13 to 14 days, scale 0 to 100 (0 no effect, 100 complete control)
Method in brief: as §2

ragweed [10] = assay: Test C postemergence; type: in vivo, Ambrosia artemisiifolia; conditions: 10 days
Method in brief: as §1

barnyardgrass [11] = assay: Test C postemergence; type: in vivo, Echinochloa crusgalli; conditions: 10 days
Method in brief: as §1

soybean [12] = assay: Test C preemergence; type: in vivo, Glycine max; conditions: for Plant response rating, Soybean: Preemergence; for Soybean plant response rating: preemergence
Method in brief: as §1

ryegrass, Italian [13] = assay: Test C postemergence; type: in vivo, Lolium multiflorum; conditions: 10 days
Method in brief: as §1

pigweed, palmer [14] = assay: Test C preemergence; type: in vivo, Amaranthus palmeri; conditions: 0 to 100 scale (0 no effect, 100 complete control); for Pigweed, Palmer plant response rating: preemergence
Method in brief: as §1

horseweed = assay: Test C postemergence; type: in vivo, Erigeron canadensis; conditions: 10 days
Method in brief: as §1

green foxtail [15] = assay: Test C preemergence; type: in vivo, Setaria viridis; conditions: for Plant response rating, Foxtail, Green: Preemergence; for Foxtail, Green plant response rating: preemergence
Method in brief: as §1

blackgrass [16] = assay: Test C postemergence; type: in vivo, Alopecurus myosuroides; conditions: 10 days
Method in brief: as §1

barnyardgrass [17] = assay: Test C preemergence; type: in vivo, Echinochloa crusgalli; conditions: for Plant response rating, Barnyardgrass: Preemergence; for Barnyardgrass plant response rating: preemergence
Method in brief: as §1

pigweed, palmer [18] = assay: Test C postemergence; type: in vivo, Amaranthus palmeri; conditions: 10 days
Method in brief: as §1

barnyardgrass [19] = assay: Test D flooded paddy test; type: in vivo, Echinochloa crus-galli; conditions: 250 g ai/ha, applied to paddy water, visual rating after 13 to 14 days, scale 0 to 100 (0 no effect, 100 complete control)
Method in brief: as §2

kochia [20] = assay: Test C preemergence; type: in vivo, Bassia scoparia; conditions: for Plant response rating, Kochia: Preemergence; for Kochia plant response rating: preemergence
Method in brief: as §1

wheat [21] = assay: Test C preemergence; type: in vivo, Triticum aestivum; conditions: for Plant response rating, Wheat: Preemergence; for Wheat plant response rating: preemergence
Method in brief: as §1

corn [22] = assay: Test C postemergence; type: in vivo, Zea mays; conditions: 10 days
Method in brief: as §1

wheat [23] = assay: Test C postemergence; type: in vivo, Triticum aestivum; conditions: 10 days
Method in brief: as §1

[24] = 500 g ai/ha, visual rating after 10 days, 0 to 100 scale (0 no effect, 100 complete control)
[25] = Test C, 125 g ai/ha, 0 to 100 scale (0 no effect, 100 complete control)
[26] = 125 g ai/ha, postemergence, 0 to 100 scale, 0 no effect, 100 complete control
[27] = Postemergence, 500 g ai/ha, visual 0 to 100 scale (0 no effect, 100 complete control)
[28] = Preemergence, 500 g ai/ha, visual rating after 10 days
[29] = 500 g ai/ha, 0 to 100 scale (0 no effect, 100 complete control)
[30] = 125 g ai/ha, 0 to 100 scale, 0 no effect, 100 complete control
[31] = 500 g ai/ha, postemergence, 0 to 100 scale (0 no effect, 100 complete control)
[32] = Postemergence, 125 g ai/ha, 0 to 100 scale (0 no effect, 100 complete control)

Cc1ccc(-n2cnc(C(C)(C)C)n2)cc1C(=O)N1CC(C(F)(F)F)Oc2c(Cl)cccc21 (single isomer, unassigned) [Compound 192]
Plant response rating, Blackgrass (blackgrass [1]; [24]): 80 | Blackgrass plant response rating (blackgrass [1]; [25]): 70 | Plant response rating, Ragweed (ragweed [2]; [24]): 80 | Ragweed plant response rating (ragweed [2]; [25]): 10 | Plant response rating, Oat, Wild (oat, wild [3]; [26]): 20 | Plant response rating, Oat, Wild (oat, wild [3]; [27]): 50 | Plant response rating, Rice (Flood) (rice): 0 | Plant response rating, Foxtail, Green (green foxtail [4]; [26]): 10 | Plant response rating, Foxtail, Green (green foxtail [4]; [27]): 80 | Plant response rating, Soybean (soybean [5]; [26]): 100 | Plant response rating, Soybean (soybean [5]; [27]): 100 | Plant response rating, Oat, Wild (oat, wild [6]; [24]): 90 | Oat, Wild plant response rating (oat, wild [6]; [25]): 40 | Plant response rating, Ryegrass, Italian (ryegrass, Italian [7]; [28]): 90 | Ryegrass, Italian plant response rating (ryegrass, Italian [7]; Test C, 125 g ai/ha): 90 | Plant response rating, Corn (corn [8]; [24]): 20 | Corn plant response rating (corn [8]; [25]): 20 | Plant response rating, Ducksalad (Flood) (ducksalad): 0 | Plant response rating, Galium (galium; [26]): 100 | Plant response rating, Galium (galium; [27]): 100 | Plant response rating, Kochia (kochia [9]; [26]): 80 | Plant response rating, Kochia (kochia [9]; [27]): 100 | Plant response rating, Sedge, Umbrella (Flood) (sedge, umbrella): 0 | Plant response rating, Ragweed (ragweed [10]; [26]): 90 | Plant response rating, Ragweed (ragweed [10]; [27]): 100 | Plant response rating, Barnyardgrass (barnyardgrass [11]; [26]): 20 | Plant response rating, Barnyardgrass (barnyardgrass [11]; [27]): 50 | Plant response rating, Soybean (soybean [12]; [24]): 90 | Soybean plant response rating (soybean [12]; [25]): 30 | Plant response rating, Ryegrass, Italian (ryegrass, Italian [13]; [26]): 40 | Plant response rating, Ryegrass, Italian (ryegrass, Italian [13]; [27]): 50 | Plant response rating, Pigweed, Palmer (pigweed, palmer [14]; [28]): 100 | Pigweed, Palmer plant response rating (pigweed, palmer [14]; Test C, 125 g ai/ha): 90 | Plant response rating, Horseweed (horseweed; [26]): 0 | Plant response rating, Horseweed (horseweed; [27]): 30 | Plant response rating, Foxtail, Green (green foxtail [15]; [24]): 100 | Foxtail, Green plant response rating (green foxtail [15]; [25]): 100 | Plant response rating, Blackgrass (blackgrass [16]; [26]): 30 | Plant response rating, Blackgrass (blackgrass [16]; [27]): 30 | Plant response rating, Barnyardgrass (barnyardgrass [17]; [24]): 90 | Barnyardgrass plant response rating (barnyardgrass [17]; [25]): 60 | Plant response rating, Pigweed, Palmer (pigweed, palmer [18]; [26]): 90 | Plant response rating, Pigweed, Palmer (pigweed, palmer [18]; [27]): 100 | Plant response rating, Barnyardgrass (Flood) (barnyardgrass [19]): 0 | Plant response rating, Kochia (kochia [20]; [24]): 100 | Kochia plant response rating (kochia [20]; [25]): 60 | Plant response rating, Wheat (wheat [21]; [24]): 30 | Wheat plant response rating (wheat [21]; [25]): 0 | Plant response rating, Corn (corn [22]; [26]): 10 | Plant response rating, Corn (corn [22]; [27]): 20 | Plant response rating, Wheat (wheat [23]; [26]): 20 | Plant response rating, Wheat (wheat [23]; [27]): 20

Cc1ncc(-c2cccc(C(=O)N3C[C@H](C)Oc4c(Cl)cccc43)c2)o1 [Compound 352]
Blackgrass plant response rating (blackgrass [1]; [29]): 0 | Plant response rating, Blackgrass (blackgrass [1]; [30]): 0 | Ragweed plant response rating (ragweed [2]; [29]): 0 | Plant response rating, Ragweed (ragweed [2]; [30]): 40 | Plant response rating, Oat, Wild (oat, wild [3]; [31]): 0 | Plant response rating, Oat, Wild (oat, wild [3]; [32]): 0 | Plant response rating, Rice (Flood) (rice): 0 | Plant response rating, Foxtail, Green (green foxtail [4]; [31]): 10 | Plant response rating, Foxtail, Green (green foxtail [4]; [32]): 20 | Plant response rating, Soybean (soybean [5]; [31]): 90 | Plant response rating, Soybean (soybean [5]; [32]): 80 | Oat, Wild plant response rating (oat, wild [6]; [29]): 0 | Plant response rating, Oat, Wild (oat, wild [6]; [30]): 0 | Ryegrass, Italian plant response rating (ryegrass, Italian [7]; 500 g ai/ha): 40 | Corn plant response rating (corn [8]; [29]): 0 | Plant response rating, Corn (corn [8]; [30]): 0 | Plant response rating, Ducksalad (Flood) (ducksalad): 0 | Plant response rating, Galium (galium; [31]): 50 | Plant response rating, Galium (galium; [32]): 60 | Plant response rating, Kochia (kochia [9]; [31]): 50 | Plant response rating, Kochia (kochia [9]; [32]): 40 | Plant response rating, Sedge, Umbrella (Flood) (sedge, umbrella): 0 | Plant response rating, Ragweed (ragweed [10]; [31]): 20 | Plant response rating, Ragweed (ragweed [10]; [32]): 20 | Plant response rating, Barnyardgrass (barnyardgrass [11]; [31]): 10 | Plant response rating, Barnyardgrass (barnyardgrass [11]; [32]): 10 | Soybean plant response rating (soybean [12]; [29]): 0 | Plant response rating, Soybean (soybean [12]; [30]): 0 | Plant response rating, Ryegrass, Italian (ryegrass, Italian [13]; [31]): 10 | Plant response rating, Ryegrass, Italian (ryegrass, Italian [13]; [32]): 10 | Pigweed, Palmer plant response rating (pigweed, palmer [14]; 500 g ai/ha): 10 | Plant response rating, Horseweed (horseweed; [31]): 10 | Plant response rating, Horseweed (horseweed; [32]): 0 | Foxtail, Green plant response rating (green foxtail [15]; [29]): 40 | Plant response rating, Foxtail, Green (green foxtail [15]; [30]): 0 | Plant response rating, Blackgrass (blackgrass [16]; [31]): 0 | Plant response rating, Blackgrass (blackgrass [16]; [32]): 0 | Barnyardgrass plant response rating (barnyardgrass [17]; [29]): 0 | Plant response rating, Barnyardgrass (barnyardgrass [17]; [30]): 0 | Plant response rating, Pigweed, Palmer (pigweed, palmer [18]; [31]): 20 | Plant response rating, Barnyardgrass (Flood) (barnyardgrass [19]): 0 | Kochia plant response rating (kochia [20]; [29]): 0 | Plant response rating, Kochia (kochia [20]; [30]): 0 | Wheat plant response rating (wheat [21]; [29]): 0 | Plant response rating, Wheat (wheat [21]; [30]): 0 | Plant response rating, Corn (corn [22]; [31]): 0 | Plant response rating, Corn (corn [22]; [32]): 0 | Plant response rating, Wheat (wheat [23]; [31]): 10 | Plant response rating, Wheat (wheat [23]; [32]): 10
